In US11578041B2, “Crystals of hydroxychloroquine sulfate” (Genovate Biotechnology Co. Ltd., priority 2020, dated 2023):

How the values were obtained:
[1] = Hygroscopicity by dynamic vapor sorption analysis; format: physicochemical; settings: for RH at which moisture is adsorbed (adsorption curve) / moisture content: 25° C.; for RH at which moisture is adsorbed (adsorption curve): 5% RH increase per step from 0 to 95% RH; for moisture content: at 95% RH; for hygroscopicity compared with the amorphous form: overall conclusion
Description: Type A crystal, type B crystal, and an amorphous form of (S)-(+)-hydroxychloroquine sulfate were subjected to dynamic vapor sorption analysis to compare their hygroscopicity using a VTI-SA vapor sorption analyzer from TA Instruments (_New Castle, Del., USA). Each was exposed to a series of relative-humidity (“RH”)-change steps at 25° C., i.e, a 5% RH increase per step from 0 to 95% RH and then a 5% RH decrease per step from 95% to 5% RH.

[2] = Solubility test in 16 solvents by stepwise solvent addition; format: physicochemical
[3] = Stability of crystal stirred in solvents, solid analysed by XRPD and chiral HPLC; format: physicochemical; settings: room temperature, 1 day
Description: Further, the stability of type A crystal was determined by stirring the crystal (10 mg) in each of nine solvent (0.5 mL) at room temperature for 1 day. For the nine solvents, see Table 6 below. The resulting solid was analyzed by XRPD and chiral HPLC containing a chiral column of DAICEL CHIRALCEL OD-H, 250×4.6 mm, 5 μm.

[4] = Thermal stability by Variable Temperature PXRD under nitrogen; format: physicochemical
Description: The stability of type A crystal was also determined by heating the crystal to 30° C., 80° C., 130° C., 160° C., 180° C., and 210° C. under nitrogen using the Variable Temperature PXRD technique. […] Only when the temperature reached 80° C., 160° C. and 210° C., it was converted to type B, C, and D crystals, respectively.

[5] = tested on: Rat Pleurisy Macrophage Model; settings: compared with (R)-(-)-isomer; cited from earlier work
[6] = animal study; cited from earlier work

CCN(CCO)CCC[C@H](C)Nc1ccnc2cc(Cl)ccc12.O=S(=O)(O)O [type B crystal, (S)-(+)-hydroxychloroquine sulfate]
RH at which moisture is adsorbed (adsorption curve) [1]: higher than 60 % RH | moisture content [1]: 30% | hygroscopicity compared with the amorphous form [1]: less hygroscopic

(±)-hydroxychloroquine [salt-free form of (±)-hydroxychloroquine]
Solubility ([2]; 2-Methyl-tetrahydrofuran): >38 mg/mL | Solubility ([2]; Acetone): >38 mg/mL | Solubility ([2]; Acetonitrile): 6.7 to 20 mg/mL | Solubility ([2]; Dichloromethane): >40 mg/mL | Solubility ([2]; Dioxane): >40 mg/mL | Solubility ([2]; Ethanol): >42 mg/mL | Solubility ([2]; Ethyl acetate): 6.7 to 20 mg/mL | Solubility ([2]; Isopropanol): >38 mg/mL | Solubility ([2]; Isopropyl acetate): 6.7 to 20 mg/mL | Solubility ([2]; Methanol): >40 mg/mL | Solubility ([2]; Methyl isobutyl ketone): >42 mg/mL | Solubility ([2]; Methyl tert-butyl ether): <2.1 mg/mL | Solubility ([2]; Tetrahydrofuran): >38 mg/mL | Solubility ([2]; Toluene): <2.0 mg/mL | Solubility ([2]; Water): <1.9 mg/mL | Solubility ([2]; n-Heptane): <2.1 mg/mL

CCN(CCO)CCC[C@H](C)Nc1ccnc2cc(Cl)ccc12.O=S(=O)(O)O [type A crystal, (S)-(+)-hydroxychloroquine sulfate]
Crystal change ([3]; Acetone): Not found | ee of resulting solid ([3]; Acetone): 95.4% | Crystal change ([3]; Acetonitrile): Not found | ee of resulting solid ([3]; Acetonitrile): 95.6% | Crystal change ([3]; Dichloromethane): Not found | ee of resulting solid ([3]; Dichloromethane): 95.8% | Crystal change ([3]; Ethanol): Not found | ee of resulting solid ([3]; Ethanol): 96.7% | Crystal change ([3]; Ethanol/water (9/1)): Not found | ee of resulting solid ([3]; Ethanol/water (9/1), starting ee 96.2%): 99.2% | Crystal change ([3]; Ethyl acetate): Not found | ee of resulting solid ([3]; Ethyl acetate): 88.8% | Crystal change ([3]; Isopropyl acetate): Not found | ee of resulting solid ([3]; Isopropyl acetate): 95.5% | Crystal change ([3]; Methanol): Clear solution | Crystal change ([3]; Tetrahydrofuran): Not found | ee of resulting solid ([3]; Tetrahydrofuran): 95.3% | stability in the test solvents (summary) ([3]; nine solvents): unexpectedly stable in all test solvents except in methanol | stability at room temperature ([4]; Variable Temperature PXRD under nitrogen): highly stable | temperature at which converted to type B crystal ([4]; heating under nitrogen): 80 °C | temperature at which converted to type C crystal ([4]; heating under nitrogen): 160 °C | temperature at which converted to type D crystal ([4]; heating under nitrogen): 210 °C | RH at which moisture is adsorbed (adsorption curve) [1]: > 85 % RH | moisture content [1]: 19% | hygroscopicity compared with the amorphous form [1]: less hygroscopic

CCN(CCO)CCC[C@H](C)Nc1ccnc2cc(Cl)ccc12.O=S(=O)(O)O (single isomer, unassigned) [(S)-(+)-isomer]
more efficacious than the (R)-(-)-isomer [5]: 70% | accumulation in ocular tissues compared with the (R)-(-)-isomer [6]: much less

CCN(CCO)CCC[C@H](C)Nc1ccnc2cc(Cl)ccc12.O=S(=O)(O)O [amorphous form, (S)-(+)-hydroxychloroquine sulfate, reference compound]
RH at which moisture is adsorbed (adsorption curve) [1]: 25 % RH | moisture content [1]: 51% | susceptibility to environment (desorption curve) ([1]; compared with type A and type B crystals): much more susceptible to an environment
